Experimental data as given in patent US20260078130A1, “NAMPT MODULATORS, PREPARATIONS, AND USES THEREOF” (SIRONAX LTD., priority 2022, published 2026).

How the values were obtained:
[1] = biological target: T1, human enzyme NAMPT (full length) (Homo sapiens, UniProt P43490); assay: NMN fluorescence biochemical assay (stimulation of NMN synthesis by NAMPT); settings: for EC50: NMN fluorescence assay, purified human NAMPT 100 nM, concentration giving half-maximal activation, read-out: Enzymatic EC50; for Enzymatic Emax: fold change of maximal activation compared to DMSO
T1 construct: human enzyme NAMPT (full length)
T1 sequence (P43490 whole entry): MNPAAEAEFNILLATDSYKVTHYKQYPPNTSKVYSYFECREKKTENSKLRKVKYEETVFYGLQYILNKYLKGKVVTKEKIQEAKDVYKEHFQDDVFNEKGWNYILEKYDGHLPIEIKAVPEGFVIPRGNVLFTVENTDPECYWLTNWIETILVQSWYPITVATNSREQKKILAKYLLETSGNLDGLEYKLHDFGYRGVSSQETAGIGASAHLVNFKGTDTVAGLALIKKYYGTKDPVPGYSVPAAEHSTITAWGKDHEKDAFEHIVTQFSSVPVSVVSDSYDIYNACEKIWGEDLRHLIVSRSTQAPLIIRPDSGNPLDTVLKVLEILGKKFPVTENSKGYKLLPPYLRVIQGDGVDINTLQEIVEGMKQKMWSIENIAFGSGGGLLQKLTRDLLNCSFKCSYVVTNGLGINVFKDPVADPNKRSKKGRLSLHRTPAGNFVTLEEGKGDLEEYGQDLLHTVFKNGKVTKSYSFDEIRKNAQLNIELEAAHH
Method in brief: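 Full-length human NAMPT (100 nM) was preincubated 15 min at 37 °C with compound in 50 mM Tris-HCl pH 7.5, 10 mM MgCl2, 2 mM DTT, then reacted 1 h at 37 °C with 50 μM NAM, 100 μM PRPP, 4 mM ATP (stated solution concentrations). NMN was derivatised with acetophenone/KOH then formic acid and read at Ex/Em 382/445 nm; EC50 and Emax (fold over DMSO) reported.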

[2] = tested on: endogenous NAMPT in U2OS cells; assay: Cellular NAD+ modulation assay (NAD/NADH-Glo, U2OS cells); assay type: cell-based; settings: Homo sapiens, 24 hours incubation, cellular NAD+; for maximal fold induction: read-out: Cellular Emax
Method in brief: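 Endogenous NAMPT stimulation in U2OS cells treated with compound dilution series for 24 h at 37 °C. Cells lysed with DTAB base, acid-treated 15 min at 60 °C, neutralized, NAD+ read by NAD/NADH-Glo luminescence after 40 min at room temperature. EC50 and Emax (fold over DMSO) derived.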

## Cn1ncc(Cl)c1CC1c2ccccc2C(=O)N1Cc1cnc(O)o1 (stereo not shown) [Compound 605, 3-((4-chloro-1-methyl-1H-pyrazol-5-yl)methyl)-2-((2-hydroxyoxazol-5-yl)methyl)isoindolin-1-one]
[1]
  EC50: 0.5 to 5 µM
  Enzymatic Emax: A (A>3)
[2]
  EC50: < 0.5 µM
  maximal fold induction: > 1.5

## Cn1ncc(Cl)c1CC1c2ccccc2C(C)(C)N1C/C=C/c1c[nH]nn1 (stereo not shown) [Compound 606, (E)-2-(3-(1H-1,2,3-triazol-4-yl)allyl)-3-((4-chloro-1-methyl-1H-pyrazol-5-yl)methyl)-1,1-dimethylisoindoline]
[1]
  EC50: 0.5 to 5 µM
  Enzymatic Emax: A (A>3)
[2]
  EC50: < 0.5 µM
  maximal fold induction: > 1.5

## Cn1ncc(Cl)c1CC1c2ccccc2C(C)(C)N1CC1CC(C(N)=O)C1 (stereo not shown) [Compound 607, 3-((3-((4-chloro-1-methyl-1H-pyrazol-5-yl)methyl)-1,1-dimethylisoindolin-2-yl)methyl)cyclobutane-1-carboxamide]
[1]
  EC50: ≥ 5 µM
  Enzymatic Emax: C (2≥C)
[2]
  EC50: 5 to 50 µM
  maximal fold induction: 1.2 to 1.5

## Cn1ncc(Cl)c1CC1c2ccccc2C(C)(C)N1Cc1ccc2[nH]nnc2c1 (stereo not shown) [Compound 608, 5-((3-((4-chloro-1-methyl-IH-pyrazol-5-yl)methyl)-1,1-dimethylisoindolin-2-yl)methyl)-1H-benzo[d][1,2,3]triazole]
[1]
  EC50: < 0.5 µM
  Enzymatic Emax: A (A>3)
[2]
  EC50: 0.5 to 5 µM
  maximal fold induction: > 1.5

## COc1ccc(CN2C(=O)c3ccccc3C2Cc2c(Cl)ccc(=O)n2C)cn1 (stereo not shown) [Compound 609, 3-((3-chloro-1-methyl-6-oxo-1,6-dihydropyridin-2-yl)methyl)-2-((6-methoxypyridin-3-yl)methyl)isoindolin-1-one]
[1]
  EC50: 0.5 to 5 µM
  Enzymatic Emax: B (3≥B>2)
[2]
  EC50: 0.5 to 5 µM
  maximal fold induction: > 1.5

## Cn1ncc(Cl)c1CC1c2ccccc2CCN1CC1CC2(CNC(=O)O2)C1 (stereo not shown) [Compound 610, 2-((1-((4-chloro-1-methyl-1H-pyrazol-5-yl)methyl)-3,4-dihydroisoquinolin-2(1H)-yl)methyl)-5-oxa-7-azaspiro[3.4]octan-6-one]
[1]
  EC50: ≥ 5 µM
  Enzymatic Emax: B (3≥B>2)
[2]
  EC50: 0.5 to 5 µM
  maximal fold induction: 1.2 to 1.5

## Cn1ncc(Cl)c1CC1c2ccccc2C(=O)N1CC1CC2(CNC(=O)N2)C1 (stereo not shown) [Compound 611, 3-((4-chloro-1-methyl-1H-pyrazol-5-yl)methyl)-2-((6-oxo-5,7-diazaspiro[3.4]octan-2-yl)methyl)isoindolin-1-one]
[1]
  EC50: ≥ 5 µM
  Enzymatic Emax: C (2≥C)
[2]
  EC50: 5 to 50 µM
  maximal fold induction: 1.2 to 1.5

## Cn1ncc(Cl)c1CC1c2ccccc2C(C)(C)N1Cc1ccc2[nH]c(=O)oc2c1 (stereo not shown) [Compound 613, 6-((3-((4-chloro-1-methyl-1H-pyrazol-5-yl)methyl)-1,1-dimethylisoindolin-2-yl)methyl)benzo[d]oxazol-2(3H)-one]
[1]
  EC50: < 0.5 µM
  Enzymatic Emax: A (A>3)
[2]
  EC50: 0.5 to 5 µM
  maximal fold induction: 1.2 to 1.5

## Cn1ncc(Cl)c1CC1c2ccccc2C(C)(C)N1Cc1cnc(O)s1 (stereo not shown) [Compound 614, 5-((3-((4-chloro-1-methyl-1H-pyrazol-5-yl)methyl)-1,1-dimethylisoindolin-2-yl)methyl)thiazol-2-ol]
[1]
  EC50: 0.5 to 5 µM
  Enzymatic Emax: B (3≥B>2)
[2]
  EC50: 5 to 50 µM
  maximal fold induction: ≤ 1.2

## COc1ccc(CN2C(=O)c3ncsc3C2Cc2c(Cl)cnn2C)cc1 (stereo not shown) [Compound 615, 6-((4-chloro-1-methyl-1H-pyrazol-5-yl)methyl)-5-(4-methoxybenzyl)-5,6-dihydro-4H-pyrrolo[3,4-d]thiazol-4-one]
[1]
  EC50: ≥ 5 µM
  Enzymatic Emax: B (3≥B>2)
[2]
  EC50: 0.5 to 5 µM
  maximal fold induction: 1.2 to 1.5

## [2H]C([2H])(c1c(Cl)cnn1C)C1c2ccccc2C(C)(C)N1CC1CC2(CNC(=O)O2)C1 (stereo not shown) [Compound 616, 2-((3-((4-chloro-1-methyl-1H-pyrazol-5-yl)methyl-d2)-1,1-dimethylisoindolin-2-yl)methyl)-5-oxa-7-azaspiro[3.4]octan-6-one]
[1]
  EC50: 0.5 to 5 µM
  Enzymatic Emax: A (A>3)
[2]
  EC50: < 0.5 µM
  maximal fold induction: 1.2 to 1.5

## COc1ccc(CN2C(=O)c3ccc(OC(F)F)cc3C2Cc2c(Cl)cnn2C)cn1 (stereo not shown) [Compound 619, 3-((4-chloro-1-methyl-1H-pyrazol-5-yl)methyl)-5-(difluoromethoxy)-2-((6-methoxypyridin-3-yl)methyl)isoindolin-1-one]
[1]
  EC50: ≥ 5 µM
  Enzymatic Emax: A (A>3)
[2]
  EC50: 0.5 to 5 µM
  maximal fold induction: > 1.5

## COc1ccc(CN2C(=O)c3ccccc3C2(C)Cc2c(Cl)cnn2C)cn1 (stereo not shown) [Compound 620, 3-((4-chloro-1-methyl-1H-pyrazol-5-yl)methyl)-2-((6-methoxypyridin-3-yl)methyl)-3-methylisoindolin-1-one]
[1]
  EC50: ≥ 5 µM
  Enzymatic Emax: B (3≥B>2)
[2]
  EC50: 0.5 to 5 µM
  maximal fold induction: 1.2 to 1.5

## COc1ccc(CN2C(=O)c3cnccc3C2Cc2c(C)ccnc2C#N)cc1 (stereo not shown) [Compound 621, 3-((2-(4-methoxybenzyl)-3-oxo-2,3-dihydro-1H-pyrrolo[3,4-c]pyridin-1-yl)methyl)-4-methylpicolinonitrile]
[1]
  EC50: ≥ 5 µM
  Enzymatic Emax: B (3≥B>2)
[2]
  EC50: 0.5 to 5 µM
  maximal fold induction: > 1.5

## COc1ccc(CN2C(=O)c3ccc(Br)cc3C2Cc2c(Cl)cnn2C)cn1 (stereo not shown) [Compound 622, 5-bromo-3-((4-chloro-1-methyl-1H-pyrazol-5-yl)methyl)-2-((6-methoxypyridin-3-yl)methyl)isoindolin-1-one]
[1]
  EC50: ≥ 5 µM
  Enzymatic Emax: A (A>3)
[2]
  EC50: 0.5 to 5 µM
  maximal fold induction: > 1.5

## COc1ccc(CN2C(=O)c3ccc(C4CC4)cc3C2Cc2c(Cl)cnn2C)cn1 (stereo not shown) [Compound 623, 3-((4-chloro-1-methyl-1H-pyrazol-5-yl)methyl)-5-cyclopropyl-2-((6-methoxypyridin-3-yl)methyl)isoindolin-1-one]
[1]
  EC50: ≥ 5 µM
  Enzymatic Emax: A (A>3)
[2]
  EC50: 0.5 to 5 µM
  maximal fold induction: > 1.5

## COc1ccc(CN2C(=O)c3ccc(C4CC4)cc3C2Cc2c(Cl)cnn2C)cc1 (stereo not shown) [Compound 624, 3-((4-chloro-1-methyl-1H-pyrazol-5-yl)methyl)-5-cyclopropyl-2-(4-methoxybenzyl)isoindolin-1-one]
[1]
  EC50: 0.5 to 5 µM
  Enzymatic Emax: B (3≥B>2)
[2]
  EC50: 0.5 to 5 µM
  maximal fold induction: 1.2 to 1.5

## COc1ccc(CN2C(=O)c3ccccc3C2Cc2c(Cl)ccn(C)c2=O)cn1 (stereo not shown) [Compound 625, 3-((4-chloro-1-methyl-2-oxo-1,2-dihydropyridin-3-yl)methyl)-2-((6-methoxypyridin-3-yl)methyl)isoindolin-1-one]
[1]
  EC50: 0.5 to 5 µM
  Enzymatic Emax: A (A>3)
[2]
  EC50: 0.5 to 5 µM
  maximal fold induction: > 1.5

## Cc1nnn2cc(CN3C(=O)c4ccccc4C3Cc3c(Cl)cnn3C)ccc12 (stereo not shown) [Compound 627, 3-((4-chloro-1-methyl-1H-pyrazol-5-yl)methyl)-2-((3-methyl-[1,2,3]triazolo[1,5-a]pyridin-6-yl)methyl)isoindolin-1-one]
[1]
  EC50: ≥ 5 µM
  Enzymatic Emax: B (3≥B>2)
[2]
  EC50: 0.5 to 5 µM
  maximal fold induction: 1.2 to 1.5

## Cn1ncc(Cl)c1CC1c2ccccc2C(=O)N1Cc1cnc(N)s1 (stereo not shown) [Compound 628, 2-((2-aminothiazol-5-yl)methyl)-3-((4-chloro-1-methyl-1H-pyrazol-5-yl)methyl)isoindolin-1-one]
[1]
  EC50: ≥ 5 µM
  Enzymatic Emax: B (3≥B>2)
[2]
  EC50: < 0.5 µM
  maximal fold induction: 1.2 to 1.5

## Cn1ncc(Cl)c1CC1c2ccccc2C(=O)N1Cc1cn[nH]c1 (stereo not shown) [Compound 629, 2-((1H-pyrazol-4-yl)methyl)-3-((4-chloro-1-methyl-1H-pyrazol-5-yl)methyl)isoindolin-1-one]
[1]
  EC50: < 0.5 µM
  Enzymatic Emax: B (3≥B>2)
[2]
  EC50: < 0.5 µM
  maximal fold induction: 1.2 to 1.5

## Cn1ncc(Cl)c1CC1c2ccccc2C(=O)N1Cc1c[nH]c(=S)s1 (stereo not shown) [Compound 631, 3-((4-chloro-1-methyl-1H-pyrazol-5-yl)methyl)-2-((2-thioxo-2,3-dihydrothiazol-5-yl)methyl)isoindolin-1-one]
[1]
  EC50: ≥ 5 µM
  Enzymatic Emax: A (A>3)
[2]
  EC50: 0.5 to 5 µM
  maximal fold induction: > 1.5

## Cn1ncc(Cl)c1CC1c2ccccc2C(=O)N1Cc1n[nH]c(=O)o1 (stereo not shown) [Compound 632, 5-((1-((4-chloro-1-methyl-1H-pyrazol-5-yl)methyl)-3-oxoisoindolin-2-yl)methyl)-1,3,4-oxadiazol-2(3H)-one]
[1]
  EC50: ≥ 5 µM
  Enzymatic Emax: B (3≥B>2)
[2]
  EC50: 0.5 to 5 µM
  maximal fold induction: > 1.5

## Cc1nc(O)sc1CN1C(=O)c2ccccc2C1Cc1c(Cl)cnn1C (stereo not shown) [Compound 635, 3-((4-chloro-1-methyl-1H-pyrazol-5-yl)methyl)-2-((2-hydroxy-4-methylthiazol-5-yl)methyl)isoindolin-1-one]
[1]
  EC50: 0.5 to 5 µM
  Enzymatic Emax: B (3≥B>2)
[2]
  EC50: 0.5 to 5 µM
  maximal fold induction: > 1.5

## Cn1ncc(Cl)c1CC1c2ccccc2C(=O)N1Cc1c[nH]nn1 (stereo not shown) [Compound 637, 2-((1H-1,2,3-triazol-4-yl)methyl)-3-((4-chloro-1-methyl-1H-pyrazol-5-yl)methyl)isoindolin-1-one]
[1]
  EC50: ≥ 5 µM
  Enzymatic Emax: B (3≥B>2)
[2]
  EC50: < 0.5 µM
  maximal fold induction: 1.2 to 1.5
